Experimental data: US5225438A, “Aryl derivatives” (Imperial Chemical Industries PLC, priority 1990, dated 1993)

Assays:
5-LO [1] = molecular target: T1, 5-LO (Homo sapiens, UniProt P09917); assay: Test a) in vitro human blood challenged with calcium ionophore A23187, LTB4 radioimmunoassay; format: cell-based; conditions: heparinised human blood
T1 construct: incubating a test compound with heparinised human blood, prior to challenge with the calcium ionophore A23187; endogenous in cells; host or cells: blood cells in heparinised human whole blood
T1 sequence (P09917 1-674): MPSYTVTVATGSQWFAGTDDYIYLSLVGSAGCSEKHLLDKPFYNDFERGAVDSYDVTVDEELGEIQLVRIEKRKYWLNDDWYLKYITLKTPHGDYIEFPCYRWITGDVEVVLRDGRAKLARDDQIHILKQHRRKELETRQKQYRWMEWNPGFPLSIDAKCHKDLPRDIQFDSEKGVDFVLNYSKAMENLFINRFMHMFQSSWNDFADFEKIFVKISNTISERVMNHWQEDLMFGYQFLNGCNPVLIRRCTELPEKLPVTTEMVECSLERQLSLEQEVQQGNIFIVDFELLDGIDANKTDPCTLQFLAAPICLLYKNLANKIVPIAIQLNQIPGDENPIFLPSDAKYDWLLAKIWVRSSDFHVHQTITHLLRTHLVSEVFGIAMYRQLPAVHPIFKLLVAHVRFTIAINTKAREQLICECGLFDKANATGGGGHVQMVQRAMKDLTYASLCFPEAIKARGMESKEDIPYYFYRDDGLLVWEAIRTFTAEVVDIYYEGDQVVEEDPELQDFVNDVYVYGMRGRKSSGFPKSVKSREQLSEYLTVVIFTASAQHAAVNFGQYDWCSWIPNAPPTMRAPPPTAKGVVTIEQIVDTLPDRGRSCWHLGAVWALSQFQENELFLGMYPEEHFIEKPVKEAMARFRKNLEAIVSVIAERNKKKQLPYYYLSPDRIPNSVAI
Experimental: a) An in vitro assay system involving incubating a test compound with heparinised human blood, prior to challenge with the calcium ionophore A23187 and then indirectly measuring the inhibitory effects on 5-LO by assaying the amount of LTB4 using specific radioimmunoassays described by Carey and Forder (Prostaglandins, Leukotrienes Med., 1986, 22, 57; Prostaglandins, 1984, 28, 666; Brit. J. Pharmacol., 1985, 84, 34P) which involves the use of a protein-LTB4 conjugate produced using the procedure of Young et alia (Prostaglandins, 1983, 26(4), 605-613). The effects of a test compound on the enzyme cyclooxygenase (which is involved in the alternative metabolic pathway for arachidonic acid and gives rise to prostaglandins, thromboxanes and related metabolites) may be measured at the same time using the specific radioimmunoassay for thromboxane B2 (TxB2) described by Carey and Forder (see above). This test provides an indication of the effects of a test compound against 5-LO and also cyclooxygenase in the presence of blood cells and proteins. It permits the selectivity of the inhibitory effect on 5-LO or cyclooxygenase to be assessed.

5-LO [2] = molecular target: T2, 5-LO (Rattus norvegicus, UniProt P12527); assay: Test c) in vivo zymosan-induced liberation of LTB4 within an air pouch of male rats; conditions: 3 h; test c), oral
T2 construct: liberation of LTB4 induced by zymosan within an air pouch generated within the subcutaneous tissue of the back of male rats; from tissue; host or cells: live male rats, zymosan-inflamed subcutaneous air pouch (endogenous enzyme)
T2 sequence (P12527 1-673): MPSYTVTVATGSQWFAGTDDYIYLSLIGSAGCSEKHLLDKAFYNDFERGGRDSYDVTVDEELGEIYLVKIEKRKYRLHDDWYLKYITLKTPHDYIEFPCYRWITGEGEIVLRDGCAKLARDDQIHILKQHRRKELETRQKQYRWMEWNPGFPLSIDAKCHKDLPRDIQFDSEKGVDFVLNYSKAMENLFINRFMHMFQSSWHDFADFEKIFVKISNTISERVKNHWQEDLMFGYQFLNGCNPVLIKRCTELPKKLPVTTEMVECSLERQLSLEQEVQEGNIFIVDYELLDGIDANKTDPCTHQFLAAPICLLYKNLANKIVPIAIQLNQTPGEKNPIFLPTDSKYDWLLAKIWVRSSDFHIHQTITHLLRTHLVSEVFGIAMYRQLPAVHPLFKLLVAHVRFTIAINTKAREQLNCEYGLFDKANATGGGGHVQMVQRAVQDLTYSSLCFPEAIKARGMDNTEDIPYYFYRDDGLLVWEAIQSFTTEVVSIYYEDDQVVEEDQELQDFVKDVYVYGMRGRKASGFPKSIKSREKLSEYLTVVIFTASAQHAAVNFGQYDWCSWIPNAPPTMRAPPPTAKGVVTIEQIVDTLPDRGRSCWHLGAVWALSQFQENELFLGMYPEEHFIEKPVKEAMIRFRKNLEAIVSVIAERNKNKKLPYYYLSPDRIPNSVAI
Experimental: c) An in vivo system involving measuring the effects of a test compound administered orally against the liberation of LTB4 induced by zymosan within an air pouch generated within the subcutaneous tissue of the back of male rats. The rats are anaesthetised and air pouches are formed by the injection of sterile air (20 ml). A further injection of air (10 ml) is similarly given after 3 days. At 6 days after the initial air injection the test compound is administered (usually orally as the suspension produced when a solution of the test compound in dimethylsulphoxide is added to hydroxypropylmethylcellulose), followed by the intrapouch injection of zymosan (1 ml of a 1% suspension in physiological saline). After 3 hours the rats are killed, the air pouches are lavaged with physiological saline, and the specific radioimmunoassay described above is used to assay LTB4 in the washings. This test provides an indication of inhibitory effects against 5-LO in an inflammatory milieu.

Row | Compound | IC50 (5-LO [1]) | ED50 (5-LO [2])
1 | COC1(c2cccc(Sc3ccc(Cc4ccc(F)cc4)cc3)c2)CCOCC1 [4-[3-(4-(4-fluorobenzyl)phenylthio)phenyl]-4-methoxytetrahydropyran] | 40 nM | 2 mg/kg
2 | COC1(c2cc(F)cc(Sc3ccc(C(F)(F)c4ccc(F)cc4)cc3)c2)CCOCC1 [4-[5-fluoro-3-(4-(4-fluoro-alpha,alpha-difluorobenzyl)phenylthio)phenyl]-4-methoxytetrahydropyran] | 140 nM | 1 mg/kg
